Reference: US20240352145A1, “EFFICACY OF ANTI-TROP-2-SN-38 ANTIBODY DRUG CONJUGATES FOR THERAPY OF TUMORS RELAPSED/REFRACTORY TO CHECKPOINT INHIBITORS” (Immunomedics, Inc., priority 2016, published 2024)

What was measured:
[1] = mouse, in vivo
[2] = system: BxPC-3 human pancreatic tumors; test: BxPC-3 xenograft therapy; assay type: in vivo, mouse
Experimental: NCr female athymic nude (nu/nu) mice, 4 to 8 weeks old, and male Swiss-Webster mice, 10 weeks old, were purchased from Taconic Farms. Tolerability studies were performed in Cynomolgus monkeys (Macaca fascicularis; 2.5-4 kg male and female) by SNBL USA, Ltd. Animals were implanted subcutaneously with different human cancer cell lines. Tumor volume (TV) was determined by measurements in 2 dimensions using calipers, with volumes defined as: L×w^2/2, where L is the longest dimension of the tumor and w is the shortest. […] This dosing frequency reflected a consideration of the conjugate's serum half-life […], to allow a more continuous exposure to the ADC.
Statistics—Growth curves are shown as percent change in initial TV over time. Statistical analysis of tumor growth was based on area under the curve (AUC). Profiles of individual tumor growth were obtained through linear-curve modeling. An f-test was employed to determine equality of variance between groups before statistical analysis of growth curves. A 2-tailed t-test was used to assess statistical significance between the various treatment groups and controls, except for the saline control, where a 1-tailed t-test was used (significance at P≤0.05). Statistical comparisons of AUC were performed only up to the time that the first animal within a group was euthanized due to progression.

NCI-N87 = test: Cytotoxicity (MTS), Example 6, NCI-N87; assay type: cell-based, human; conditions: NCI-N87, 96 h
Experimental: (§1) One day prior to adding the ADCs, cells were harvested from tissue culture and plated into 96-well plates. […] Plates were incubated at 37° C. for 96 h. […] Growth inhibition was measured as a percent of growth relative to untreated cells using Microsoft Excel and Prism software (non-linear regression to generate sigmoidal dose response curves which yield IC50-values.

HCC1806 (Trop-2+) = test: dsDNA breaks, phospho-H2AX flow cytometry, HCC1806; assay type: cell-based, human; conditions: untreated baseline 168
Experimental: In vitro specificity testing by flow cytometry with rH2AX-stained cells—For drug activity testing, HCC1806 and HCC1395 TNBC cell lines cells were seeded in 6-well plates at 5×10^5 cells/well and held at 37° C. overnight. […] The signal intensity of rH2AX was measured by flow cytometry using a BD FACSCalibur (BD Biosciences, San Jose, CA).
The cells were then washed to remove unbound conjugate, and then incubated overnight at 37° C.

[3] = system: human gastric carcinoma xenograft, NCI-N87; test: NCI-N87 gastric carcinoma xenograft, Example 17; assay type: in vivo, mouse
Source text: In Vivo Therapeutic Studies—NCr female athymic nude (nu/nu) mice, 4-8 weeks old, were purchased from Taconic Farms (Germantown, NY). NCI-N87 gastric tumor xenografts were established by harvesting cells from tissue culture and making a final cell suspension 1:1 in matrigel (BD Bioscience; San Jose, CA), with each mouse receiving a total of 1×10^7 cells s.c. in the right flank. For BxPC-3. xenografts of 1 g were harvested, and a tumor suspension made in HBSS to a concentration of 40% tumor w/v. This suspension was mixed 1:1 with matrigel for a final tumor suspension of 20% w/v. […] For IHC, tumors were allowed to grow to approximately 0.5 cm^3 before the mice were euthanized and the tumors removed, formalin-fixed and paraffin-embedded. For therapy studies, mice were randomized into treatment groups and therapy begun when tumor volumes were approximately 0.25 cm^3.
Mice were euthanized and deemed to have succumbed to disease once tumors grew to greater than 1.0 cm^3 in size. […] Time to progression (TTP) was determined as time post-therapy initiation when the tumor grew more than 20% in size from its nadir.
Survival studies were analyzed using Kaplan-Meier plots (log-rank analysis), using the Prism GraphPad Software (v4.03) software package (Advanced Graphics Software, Inc., Encinitas, CA).

BxPC-3 = test: Cytotoxicity (MTS), Example 6, BxPC-3; assay type: cell-based, human; conditions: BxPC-3, 96 h
Experimental: as §1

MDA-MB-468 TNBC tumors = test: MDA-MB-468 TNBC xenograft; assay type: in vivo, mouse
Trop-2 = molecular target: T1, Trop-2 (Homo sapiens, UniProt P09758); test: Trop-2 ELISA, human; assay type: binding; design: purchased Sino Biological, Inc. 10428-H09H
T1 sequence (P09758 27-323): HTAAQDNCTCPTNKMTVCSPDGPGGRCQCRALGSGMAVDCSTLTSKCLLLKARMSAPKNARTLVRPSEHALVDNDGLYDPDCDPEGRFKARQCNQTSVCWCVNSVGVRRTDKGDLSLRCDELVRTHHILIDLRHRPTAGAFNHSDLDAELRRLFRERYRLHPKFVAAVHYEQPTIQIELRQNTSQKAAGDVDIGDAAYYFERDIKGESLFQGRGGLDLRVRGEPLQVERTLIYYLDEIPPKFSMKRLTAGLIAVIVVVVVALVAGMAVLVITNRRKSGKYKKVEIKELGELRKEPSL
Experimental: (§2) Trop-2 ELISA—Recombinant human Trop-2 with a His-tag (Sino Biological, Inc., Bejing, China; Cat #10428-H09H) and recombinant mouse Trop-2 with a His-Tag (Sino Biological, Inc., Cat #50922-M08H) were plated onto Ni-NTA Hissorb strips (Qiagen GmbH Cat #35023) at 1 μg for 1 h at room temperature. The plate was washed four times with PBS-Tween (0.05%) wash buffer. Serial dilutions of hRS7 were made in 1% BSA-PBS dilution buffer to a test range of 0.1 ng/mL to 10 μg/mL. The plates were then incubated for 2 h at room temperature before being washed four times followed by the addition of a peroxidase conjugated secondary antibody (goat anti-human, Fc fragment specific; Jackson Immunoresearch Cat #109-036-098). After a 45-min incubation, the plate was washed and a substrate solution (o-phenylenediamine dihydrochloride (OPD); Sigma, Cat #P828) added to all the wells. Plates were incubated in the dark for 15 min before the reaction was stopped with 4N sulfuric acid. The plates were read at 450 nm on Biotek ELX808 plate reader. Data were analyzed and graphed using Prism GraphPad Software (v4.03) (Advanced Graphics Software, Inc.; Encinitas, CA).

recombinant mouse Trop-2 = molecular target: T2, recombinant mouse Trop-2 (Mus musculus, UniProt Q8BGV3); test: Trop-2 ELISA, murine; assay type: binding
T2 construct: purchased Sino Biological, Inc. 50922-M08H
T2 sequence (Q8BGV3 25-317): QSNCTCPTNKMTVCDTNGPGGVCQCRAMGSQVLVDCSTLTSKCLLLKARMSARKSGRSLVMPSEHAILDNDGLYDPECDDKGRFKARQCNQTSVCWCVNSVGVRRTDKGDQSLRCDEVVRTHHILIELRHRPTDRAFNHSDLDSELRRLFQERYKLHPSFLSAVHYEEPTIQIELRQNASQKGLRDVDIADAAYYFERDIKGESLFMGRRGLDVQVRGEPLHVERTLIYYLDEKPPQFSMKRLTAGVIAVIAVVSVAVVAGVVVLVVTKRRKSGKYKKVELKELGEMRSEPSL
Experimental: as §2

Substance | clearance vs unconjugated IgG [1] | tumor volume (TV) ([2]; day 21, equivalent amounts of ADC) [cm^3] | tumor volume (TV) ([2]; day 25) [cm^3] | IC50 (NCI-N87) [nM] | Median fluorescence intensity, anti-rH2AX-AF488 (HCC1806 (Trop-2+)) | anti-tumor effects vs non-specific control ([3]; 17.5 mg/kg, twice weekly x 4 weeks) | median survival time (MST) ([3]; 14 days for saline control) [days] | mean time to progression (TTP) ([3]; mouse, in vivo) [days] | partial responders, mice ([3]; mouse, in vivo) | IC50 (BxPC-3) [nM] | tumor response (MDA-MB-468 TNBC tumors; 0.12 or 0.20 mg/kg SN-38-equivalents, vs saline, irinotecan, hA20-CL2A-SN-38) | total volume [TV] five weeks after re-treatment (MDA-MB-468 TNBC tumors; mice progressed on hA20-CL2A-SN-38 (0.74±0.41 cm^3), then 0.2 mg/kg) [cm^3] | decrease in tumor size after re-treatment (MDA-MB-468 TNBC tumors; one animal each, tumors progressed to ~0.7 cm^3 on irinotecan) [%] | Kd (Trop-2) [nM] | cross-reactivity (recombinant mouse Trop-2)
IMMU-132 | no significant difference in the clearance | 0.24±0.11 | 0.27±0.18 | 3.6 | 546 | significant anti-tumor effects | 66 | 41.7 ± 4.2 | 6 of 7 | 2.6 | induced significant tumor regression | 0.14±0.14 | 60 | – | –
hRS7 IgG | – | – | – | – | – | – | – | – | – | – | – | – | – | 0.3 | no cross-reactivity with the murine Trop-2
